# Source: US10858355B2, “Inhibitors of phosphatidylinositol 3-kinase gamma” (AstraZeneca AB, priority 2016, dated 2020)
# Target: recombinant human PI3Kγ (aa144-1102)-6His (Homo sapiens (Human), UniProt P48736)
# Experiment: Test A: Enzymatic Activity Assay for Rec Human PI3Kγ (ADP-Glo)
# Type: biochemical
# Details: 20 μM ATP, 80 μM DiC8-PIP2, 1.2 nM PI3Kγ, 15 min pre-incubation, 60 min reaction
# Protocol: Pharmacological Activity Test A: Enzymatic Activity Assay for Rec Human PI3Kγ
# The activity of recombinant human PI3Kγ (aa144-1102)-6His was determined by measuring the ADP level after phosphorylation of DiC8-PIP2 using a commercially available ADP-Glo™ kit from Promega. The assay was carried out in white low volume 384 well plates in a final volume of 14 μl at rt. The assay conditions contained the following: 50 mM Tris buffer pH 7.4, 2.1 mM DTT, 3 mM MgCl2, 0.05% CHAPS, 20 μM ATP, 80 μM DiC8-PIP2 and 1.2 nM PI3Kγ. […] Routinely, inhibitors were pre-incubated with 3 μl of PI3Kγ for 15 min prior to the addition of […] substrate mixture for a further 60 min enzyme reaction. The phosphorylation was stopped with the addition of 3 μl ADP-Glo™ reagent (stop solution) followed by a 40 min incubation. Prior to detection 6 μl of ADP-Glo™ Kinase Detection Reagent was added and the plates were read in a micro plate reader using a Luminescence filter.
# Chain of recombinant human PI3Kγ (aa144-1102)-6His (P48736 144-1102): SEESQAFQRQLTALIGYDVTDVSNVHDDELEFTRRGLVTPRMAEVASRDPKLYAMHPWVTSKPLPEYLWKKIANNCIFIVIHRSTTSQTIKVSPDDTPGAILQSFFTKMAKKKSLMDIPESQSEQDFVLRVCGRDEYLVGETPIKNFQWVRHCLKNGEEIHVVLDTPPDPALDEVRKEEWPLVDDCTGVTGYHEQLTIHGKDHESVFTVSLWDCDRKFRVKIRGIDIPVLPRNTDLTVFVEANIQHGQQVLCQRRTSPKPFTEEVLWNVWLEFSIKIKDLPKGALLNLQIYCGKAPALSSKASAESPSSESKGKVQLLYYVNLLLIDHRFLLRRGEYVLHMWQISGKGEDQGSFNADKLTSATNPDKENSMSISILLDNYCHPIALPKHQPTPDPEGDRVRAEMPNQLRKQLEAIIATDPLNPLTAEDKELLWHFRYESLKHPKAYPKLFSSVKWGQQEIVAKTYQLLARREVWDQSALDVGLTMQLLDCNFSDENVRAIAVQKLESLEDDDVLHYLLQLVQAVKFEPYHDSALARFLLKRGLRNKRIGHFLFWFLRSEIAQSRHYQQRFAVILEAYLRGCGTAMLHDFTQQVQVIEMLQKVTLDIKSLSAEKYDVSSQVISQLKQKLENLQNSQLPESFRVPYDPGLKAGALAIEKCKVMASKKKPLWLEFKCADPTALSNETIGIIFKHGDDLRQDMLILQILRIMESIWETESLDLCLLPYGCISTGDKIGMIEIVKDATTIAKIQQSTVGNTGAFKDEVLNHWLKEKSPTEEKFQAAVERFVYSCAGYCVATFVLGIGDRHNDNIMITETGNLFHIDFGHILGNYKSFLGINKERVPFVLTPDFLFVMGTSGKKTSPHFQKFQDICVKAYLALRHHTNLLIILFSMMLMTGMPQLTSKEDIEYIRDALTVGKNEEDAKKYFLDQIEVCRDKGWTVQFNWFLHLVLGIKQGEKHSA
row,"PI3Kγ activity, pIC50",SMILES
1,8.8,"CC(=O)Nc1nc(C)c(-c2cc3c(c(S(C)(=O)=O)c2)C(=O)N(C(C)C)C3)s1 [Example 3, N-{4-Methyl-5-[7-(methylsulfonyl)-1-oxo-2-(propan-2-yl)-2,3-dihydro-1H-isoindol-5-yl]-1,3-thiazol-2-yl}acetamide]"
2,8.8,"CNS(=O)(=O)c1cc(-c2sc(NC(C)=O)nc2C)cc2c1C(=O)N(C(C)C)C2 [Example 11, N-{4-Methyl-5-[7-(methylsulfamoyl)-1-oxo-2-(propan-2-yl)-2,3-dihydro-1H-isoindol-5-yl]-1,3-thiazol-2-yl}acetamide]"
3,9.0,"CC(=O)Nc1nc(C)c(-c2cc3c(c(NS(=O)(=O)C(C)(C)C)c2)C(=O)N([C@@H](C)C2CC2)C3)s1 [Example 26, N-(5-{7-[(tert-Butylsulfonyl)amino]-2-[(1S)-1-cyclopropylethyl]-1-oxo-2,3-dihydro-1H-isoindol-5-yl}-4-methyl-1,3-thiazol-2-yl)acetamide]"
4,9.2,"CC(=O)Nc1nc(C)c(-c2cc3c(c(S(=O)(=O)NC4COC4)c2)C(=O)N([C@@H](C)C2CC2)C3)s1 [Example 16, N-(5-{2-[(1S)-1-Cyclopropylethyl]-7-(oxetan-3-ylsulfamoyl)-1-oxo-2,3-dihydro-1H-isoindol-5-yl}-4-methyl-1,3-thiazol-2-yl)acetamide]"
5,9.4,"CCNS(=O)(=O)c1cc(-c2sc(NC(C)=O)nc2C)cc2c1C(=O)N([C@@H](C)C1CC1)C2 [Example 15, N-(5-{2-[(1S)-1-Cyclopropylethyl]-7-(ethylsulfamoyl)-1-oxo-2,3-dihydro-1H-isoindol-5-yl}-4-methyl-1,3-thiazol-2-yl)acetamide]"
6,8.8,"CNS(=O)(=O)c1cc(-c2sc(NC(C)=O)nc2C)cc2c1C(=O)N(C(C)(C)C)C2 [Example 34, N-{5-[2-tert-Butyl-7-(methylsulfamoyl)-1-oxo-2,3-dihydro-1H-isoindol-5-yl]-4-methyl-1,3-thiazol-2-yl}acetamide]"
7,8.9,"CC(=O)Nc1nc(C)c(-c2cc3c(c(S(N)(=O)=O)c2)C(=O)N(C(C)C)C3)s1 [Example 21, N-{4-Methyl-5-[1-oxo-2-(propan-2-yl)-7-sulfamoyl-2,3-dihydro-1H-isoindol-5-yl]-1,3-thiazol-2-yl}acetamide]"
8,9.0,"CC(=O)Nc1nc(C)c(-c2cc3c(c(S(=O)(=O)NC4CC4)c2)C(=O)N([C@@H](C)C2CC2)C3)s1 [Example 14, N-(5-{2-[(1S)-1-Cyclopropylethyl]-7-(cyclopropylsulfamoyl)-1-oxo-2,3-dihydro-1H-isoindol-5-yl}-4-methyl-1,3-thiazol-2-yl)acetamide]"
9,8.9,"CC(=O)Nc1nc(C)c(-c2cc3c(c(S(=O)(=O)NC4CCC4)c2)C(=O)N([C@@H](C)C2CC2)C3)s1 [Example 10, N-(5-{7-(Cyclobutylsulfamoyl)-2-[(1S)-1-cyclopropylethyl]-1-oxo-2,3-dihydro-1H-isoindol-5-yl}-4-methyl-1,3-thiazol-2-yl)acetamide]"
10,9.0,"CNS(=O)(=O)c1cc(-c2sc(NC(C)=O)nc2C)cc2c1C(=O)N([C@@H](C)C(F)(F)F)C2 [Example 35, N-(4-Methyl-5-{7-(methylsulfamoyl)-1-oxo-2-[(2S)-1,1,1-trifluoropropan-2-yl]-2,3-dihydro-1H-isoindol-5-yl}-1,3-thiazol-2-yl)acetamide]"

# More lines, now with the values behind:
row,SMILES,"PI3Kγ activity, pIC50"
1,"CC(=O)Nc1nc(C)c(-c2cc3c(c(S(=O)(=O)NCC(F)(F)F)c2)C(=O)N([C@@H](C)C2CC2)C3)s1 [Example 20, N-(5-{2-[(1S)-1-Cyclopropylethyl]-1-oxo-7-[(2,2,2-trifluoroethyl)sulfamoyl]-2,3-dihydro-1H-isoindol-5-yl}-4-methyl-1,3-thiazol-2-yl)acetamide]",9.2
2,"CC(=O)Nc1nc(C)c(-c2cc3c(c(NS(=O)(=O)CC4CC4)c2)C(=O)N([C@@H](C)C2CC2)C3)s1 [Example 28, N-[5-(2-[(1S)-1-Cyclopropylethyl]-7-{[(cyclopropylmethyl)sulfonyl]amino}-1-oxo-2,3-dihydro-1H-isoindol-5-yl)-4-methyl-1,3-thiazol-2-yl]acetamide]",9.1
3,"CC(=O)Nc1nc(C)c(-c2cc3c(c(NS(=O)(=O)C4CC4)c2)C(=O)N([C@@H](C)C2CC2)C3)s1 [Example 23, N-(5-{2-[(1S)-1-Cyclopropylethyl]-7-[(cyclopropylsulfonyl)amino]-1-oxo-2,3-dihydro-1H-isoindol-5-yl}-4-methyl-1,3-thiazol-2-yl)acetamide]",9.2
4,"CNS(=O)(=O)c1cc(-c2cnc3c(N)nccn23)cc2c1C(=O)N([C@@H](C)C1CC1)C2 [Example 31, 6-(8-Aminoimidazo[1,2-a]pyrazin-3-yl)-2-[(1S)-1-cyclopropylethyl]-N-methyl-3-oxo-2,3-dihydro-1H-isoindole-4-sulfonamide]",8.7
5,"CC(=O)Nc1nc(C)c(-c2cc3c(c(NS(=O)(=O)c4cn(C)nc4C)c2)C(=O)N([C@@H](C)C2CC2)C3)s1 [Example 29, N-[5-(2-[(1S)-1-Cyclopropylethyl]-7-{[(1,3-dimethyl-1H-pyrazol-4-yl)sulfonyl]amino}-1-oxo-2,3-dihydro-1H-isoindol-5-yl)-4-methyl-1,3-thiazol-2-yl]acetamide]",8.9
6,"CNS(=O)(=O)c1cc(-c2cnc(NC(C)=O)s2)cc2c1C(=O)N([C@@H](C)C1CC1)C2 [Example 8, N-(5-{2-[(1S)-1-Cyclopropylethyl]-7-(methylsulfamoyl)-1-oxo-2,3-dihydro-1H-isoindol-5-yl}-1,3-thiazol-2-yl)acetamide]",9.0
7,"CC(=O)Nc1nc(C)c(-c2cc3c(c(NC(C)=O)c2)C(=O)N([C@@H](C)C2CC2)C3)s1 [Example 5, N-(5-{7-(Acetylamino)-2-[(1S)-1-cyclopropylethyl]-1-oxo-2,3-dihydro-1H-isoindol-5-yl}-4-methyl-1,3-thiazol-2-yl)acetamide]",9.0
8,"CC(=O)Nc1nc(C)c(-c2cc3c(c(S(=O)(=O)NC4CC(F)(F)C4)c2)C(=O)N([C@@H](C)C2CC2)C3)s1 [Example 17, N-(5-{2-[(1S)-1-Cyclopropylethyl]-7-[(3,3-difluorocyclobutyl)sulfamoyl]-1-oxo-2,3-dihydro-1H-isoindol-5-yl}-4-methyl-1,3-thiazol-2-yl)acetamide]",8.9
9,"CC(=O)Nc1ncc(-c2cc3c(c(S(C)(=O)=O)c2)C(=O)N([C@@H](C)C2CC2)C3)s1 [Example 2, N-(5-{2-[(1S)-1-Cyclopropylethyl]-7-(methylsulfonyl)-1-oxo-2,3-dihydro-1H-isoindol-5-yl}-1,3-thiazol-2-yl)acetamide]",9.0

# Same assay, conditions: 20 μM ATP, 80 μM DiC8-PIP2, 1.2 nM PI3Kγ, 15 min pre-incubation, 60 min reaction; read-out: PI3Kγ activity, pIC50 (converted)
row,IC50,SMILES
1,1.26 nM,"CC(=O)Nc1ncc(-c2cc3c(c(S(N)(=O)=O)c2)C(=O)N([C@@H](C)C2CC2)C3)s1 [Example 12, N-(5-{2-[(1S)-1-Cyclopropylethyl]-1-oxo-7-sulfamoyl-2,3-dihydro-1H-isoindol-5-yl}-1,3-thiazol-2-yl)acetamide]"
2,1.26 nM,"CNS(=O)(=O)c1cc(-c2sc(NC(C)=O)nc2Cl)cc2c1C(=O)N([C@@H](C)C1CC1)C2 [Example 30, N-(4-Chloro-5-{2-[(1S)-1-cyclopropylethyl]-7-(methylsulfamoyl)-1-oxo-2,3-dihydro-1H-isoindol-5-yl}-1,3-thiazol-2-yl)acetamide]"
